From paper PMC4551467 (EBioMedicine, 2015)
“Also recorded” adds a separate entry of the source.

How the values were obtained:
[1] = system: HeLa, ME-180, MDA-MB-231, A549 and NIH:OVCAR-3 cancer cells; assay: cells; format: cell-based; conditions: Homo sapiens, 72 h, read-out: IC50 against cancer cells
MRC-5 human normal cells = format: cell-based
[2] = mouse, in vivo
[3] = system: NIH:OVCAR-3 ovarian cancer xenograft; set-up: species or system SCID mice; conditions: mouse, in vivo
[4] = system: A549 lung cancer xenograft tumor tissue; set-up: species or system SCID mice; conditions: mouse, in vivo
[5] = mouse, in vivo; remark: listed apart in the source
[6] = system: GM05757 human normal cells; format: cell-based
[7] = system: NIH:OVCAR-3 cisplatin-resistant human ovarian cancer cells; assay: cells; format: cell-based
[8] = system: human normal cells (GM05757 and MRC-5); format: cell-based; conditions: read-out: IC50 toward human normal cells
[9] = mouse, in vivo, cited from earlier work
[10] = system: MRC-5 human lung normal cells; format: cell-based; conditions: read-out: IC50 (agent concentration to kill 50% of untreated cells), MRC-5

Nc1cc(I)c(I)cc1N [FMD-2I-DAB, 4,5-diiodo-1,2-phenylenediamine]
IC50 [1]: 15 to 75 µM
caspase activation (apoptosis) in normal cells (MRC-5 human normal cells): negligible caspase activation
overall physical toxicity in mice [2]: no overall physical toxicity
cisplatin-resistant ovarian (NIH:OVCAR-3) tumor growth vs control [3]: effectively suppressed
apoptosis in tumor tissue (TUNEL) vs untreated group [4]: significant enhancement in apoptosis; also recorded: most effective inducer of apoptosis
acute toxicity in mice (hepatotoxicity, nephrotoxicity, electrolytes) [5]: no acute toxicity

Nc1cc(Br)c(Br)cc1N [FMD-2Br-DAB, 4,5-dibromo-1,2-phenylenediamine]
IC50 [1]: 15 to 75 µM
caspase activation (apoptosis) in normal cells (MRC-5 human normal cells): negligible caspase activation
overall physical toxicity in mice [2]: no overall physical toxicity
increase of the GSH level in normal cells [6]: about 40%
IC50 ([7]; Homo sapiens, OVCAR-3, 72 h, read-out: IC50, NIH:OVCAR-3): 175 µM
apoptosis in tumor tissue (TUNEL) vs untreated group [4]: significant enhancement in apoptosis
acute toxicity in mice (hepatotoxicity, nephrotoxicity, electrolytes) [5]: no acute toxicity

cisplatin
IC50 [8]: ≤ 10 µM
activation of caspase-3 and -7 in MRC-5 normal cells (MRC-5 human normal cells): significant activation
mean body weight compared to vehicle control ([9]; 2.3 mg/kg): significant decrease
levels of blood urea nitrogen (BUN) ([9]; 15 mg/kg): significantly elevated
mice that died within 5 days ([9]; 15 mg/kg): Half
IC50 [10]: ~6 µM
NIH:OVCAR-3 cancer cells surviving high-dose treatment [7]: about 12%
